The values below come from US20180111991A1, “MODULATORS OF ACTIVIN AND METHODS FOR MODULATING IMMUNE RESPONSES AND T FOLLICULAR HELPER CELLS” (LA JOLLA INSTITUTE FOR ALLERGY AND IMMUNOLOGY, priority 2014, published 2018).

Common to all, as to assay type: cell-based
For experiment [1], the system named is human naïve CD4 T cells. In words: CCR7 expression by FACS on in vitro differentiated cells. To be noted: for CCR7 downregulation (CCR7+CXCR5+ cells): with or without IL-12 (FIG. 10); for CCR7 expression (MFI): activated CD4 T cells, day 5. As for the experimental part:
(§1) For surface staining, primary-staining panels used for phenotypic analysis or for cell sorting known in the art were used. For the intranuclear staining: cells were treated with the FoxP3 Fixation/Permeabilization kit (eBioscience) and stained in Permeabilization buffer (eBioscience). For cytokine staining: day 3 or day 5 in vitro differentiated cells (specified in the main text or in figure legends) cells were stimulated for 5 hours at 37° C. with Phorbol 12-myristate 13-acetate (PMA, 25 ng/ml) and Ionomycin (1 μg/ml) in the presence of Brefeldin A (5 μg/ml). Cells were fixed with PBS 2% FBS, 1% PFA and permeabilized with PBS 2% FBS, 0.5% Saponin (from quillaja bark, Sigma-Aldrich). Samples were analyzed on a LSR Fortessa Cell Analyzer (BD, Bioscience). Flow cytometry data were analyzed with FlowJo (Tree Star). For cell sorting, cells were sorted using sorted using a FACS Aria (BD, Bioscience).
(§2) Unless differently specified, naïve CD4^+ T cells were enriched from PBMCs by magnetic bead negative selection with the Naïve CD4^+ T Cell Isolation Kit (Stem Cell Technologies). Purity (CD4^+CD45RA^+) was 90% or higher. Cells (7.5×10^4 cells/well) were activated by Dynabeads Human T-Activator CD3/CD28 (2 μl/well, Life Technologies) and cultured with recombinant human/mouse/rat activin A (50 ng/ml or 100 ng/ml), recombinant human IL-12 (5 ng/ml), recombinant human TGFβ (1 ng/ml), recombinant human IL-23 (10 ng/ml) or recombinant human IL-35 (10 ng/ml) in the presence of and recombinant human IL-7 (4 ng/ml) in AIM-V medium (Life Technologies). All cytokines were from R&D System and Peprotech. The 14 kDa mature human beta A chain of human activin A shares 100% amino acid sequence identity with bovine, feline, mouse, porcine, and rat beta A. Phenotype was quantified after 3 or 5 days, as specified in the main text of Figure legends. Similar results were obtained when using Treg-depleted FACS sorted naïve CD4 T cells, in which cells were sorted from total PBMCs by flow cytometry as CD19^−CD8^−CD14^−CD16^− CD4^+CD45RO^−CD25^− cells. For experiments quantifying supernatant CXCL13 concentration, cells were activated by plate-bound anti-human CD3 (5 μg/ml, BD) and ICOS-L (5 μg/ml, recombinant human B7-H2, R&D). CXCL13 concentrations were determined via human CXCL13 DuoSet ELISA (R&D) on supernatants harvested after 5 days of in vitro culture. For blocking experiments, cells were cultured with anti-activin A blocking mAb (5 μg/ml, clone 69403, R&D), anti-TGFβ mAb (100 μg/ml, clone 1D11.16.8, BioXcell), or equivalent concentration of mouse IgG1 isotype mAb (BioXcell). For blockade of IL-2, cells were cultured with anti-IL-2 blocking mAb (10 μg/ml, clone 5334, R&D) or mouse IgG1 isotype mAb (BioXcell).
(In general: In flow cytometry, cells or beads pass a laser one at a time.)

The test system of experiment [2] is human naïve CD4 T cells. The experiment is described as follows: In vitro Tfh differentiation, PD-1 and CXCR5 expression by FACS. As for the experimental part: as §1, §2
For experiment [3], the system named is human naïve CD4 T cells. In words: RNA sequencing and GSEA of in vitro differentiated CD4 T cells. The following applies: for genes differentially upregulated, activin A+IL-12 versus TGFβ+IL-12: each cytokine combined with IL-12, RNA-seq day 3; for expression of bona fide GC Tfh signature genes (GSEA): activin A or activin A+IL-12 versus beads, IL-12. The protocol:
Differentiation of naïve CD4^+ T cells with activin A and/or IL-12 was described above. Naïve CD4 T cells from 4 or more donors were cultured with the following conditions: beads only (beads), IL-12, activin A (100 ng/ml), activin A (100 ng/ml)+IL-12, TGFβ, TGFβ+IL-12. After 3 days of in vitro culture, live CD4^+ T cells were sorted by FACS. Total RNA was purified using miRNAeasy Mini kit (Qiagen). Standard quality control steps were included to determine total RNA quality using Agilent Bioanalyzer (RNA integrity number (RIN)>8.5; Agilent RNA 6000 Nano Kit, USA) and quantity using a nanoliter spectrophotometer (Nanodrop, Thermofisher, USA). For every sample, 500 ng of purified total RNA was prepared into mRNA libraries, according to manufacturer's instructions, using the Truseq Stranded mRNA Library Prep Kit (Illumina, RS-122-2103). The resulting libraries were deep sequenced, using the Illumina HiSeq2500 system in rapid run mode, to obtain between 6 to 7 millions of 50-bp length single-end reads per library.
The single-end reads that passed Illumina filters were filtered for reads aligning to tRNA, rRNA, adapter sequences, and spike-in controls. The reads were then aligned to UCSC hg19 reference genome using TopHat^55(v 1.4.1). DUST scores were calculated with PRINSEQ Lite^56 (v 0.20.3) and low-complexity reads (DUST >4) were removed from the BAM files. The alignment results were parsed via the SAMtools^57 to generate SAM files. Read counts to each genomic feature were obtained with the htseq-count program^58 (v 0.6.0) using the “union” option. After removing absent features (zero counts in all samples), the raw counts were converted to RPKM value followed by quantile normalization via R library ‘aroma.light’ ^59. Then the quantile normalized RPKM values were filtered by setting a cutoff value of 1 and analyzed with the Multiplot module in GenePattern suite (http://www.broadinstitute.org/cancer/software/genepattern/) to generate the Volcano, Heatmap and Expression plots. Meanwhile the filtered raw counts were imported to R/Bioconductor package DESeq2^60 (v 3.1) to normalize counts and identify differentially expressed genes among conditions.
The tonsil GC Tfh gene set was generated from previously published microarray data^38 and defined by genes with more than two-fold higher expression in GC-Tfh cells (CD4^+CD45RO^+PD-1^hiCXCR5^hi) compared to non-Tfh cells (CD4^+CD45RO^+PD-1^−CXCR5^−). […] The signal-to-noise metric was used for ranking the genes in the RNA-seq expression datasets and 10^5 cycles of permutations on the phenotype labels were performed to determine the normalized enrichment score (NES).

The subject of experiment [4] is human naïve CD4 T cells. In words: BCL6 intranuclear expression by FACS on in vitro differentiated cells. To be noted: for induction of Bcl6+CXCR5+ cells: titration with or without IL-12 (FIG. 11). The protocol: as §1, §2
The mark [5] stands for this setting: activin A alone, anti CD3/CD28 coated beads.

Entries after “also recorded” stand apart in the source; their conditions may differ.

With TGFβ, in the experiment on human naïve CD4 T cells [1], the “CCR7 downregulation (CCR7+CXCR5+ cells)” value was “influence CCR7 downregulation”. In addition, in the experiment on human naïve CD4 T cells [2] (TGFβ with IL-12, serum free media), the “induction of CXCR5 and PD-1 expression” value was “can synergize with IL-12 to induce CXCR5 and PD-1 expression”. In addition, in the experiment on human naïve CD4 T cells [3], the “genes differentially upregulated, activin A+IL-12 versus TGFβ+IL-12” value came out at 45 genes. In addition, the “induction of Bcl6+CXCR5+ cells” value in the experiment with human naïve CD4 T cells [4] is recorded as “No detectable induction of Bcl6”.

As to “activin A: commercial recombinant cytokine, homodimer of the INHBA gene product (inhibin beta A)”, in the experiment on human naïve CD4 T cells [1], the “CCR7 expression (MFI)” value is reported as “decreased CCR7 expression” and the “CCR7 downregulation (CCR7+CXCR5+ cells)” value was “influence CCR7 downregulation”. In addition, the “CCR7 expression (MFI)” value with human naïve CD4 T cells [1] (listed as Activin A) is given as “sufficient to decrease CCR7 expression”. Further, in the experiment on human naïve CD4 T cells [2] (setting [5]), the CXCR5 expression result is “some CXCR5 expression” and the PD-1 induction result is given as “massive PD-1 induction”. Besides, in the experiment on human naïve CD4 T cells [2] (activin A combined with TGFβ), the “PD-1 and CXCR5 expression (PD1+CXCR5+ cells), additive or synergistic effect” value is “no synergy between TGFβ and activin A; also recorded: neither PD-1 nor CXCR5 expression changed when activin A and TGFβ were combined”. For the same substance, in the experiment on human naïve CD4 T cells [2] (activin A in combination with IL-12, monitored 0-10 days), the “retention of CXCR5 and PD-1 expression over time” value is “retained”. Further, the “capacity to regulate differentiation of PD-1+CXCR5+ cells, TGFβ compared with activin A” value in the experiment with human naïve CD4 T cells [2] (combined with IL-12) was “induced similar levels of CXCR5 and PD-1 expression compared to TGFβ”. Besides, the “coexpression of PD-1 and CXCR5 (PD-1+CXCR5+ cells)” value in the experiment on human naïve CD4 T cells [2] (in combination with IL-12) was “dramatic increase in the coexpression of PD-1 and CXCR5; also recorded: synergistic effect with IL-12”. For the same substance, the “PD-1 and CXCR5 expression on activated naïve CD4 T cells” value in the experiment with human naïve CD4 T cells [2] (serum free conditions, activin A titration) is “induces both PD-1 and CXCR5 expression on activated naïve CD4 T cells in a dose dependent fashion”. Further, the “regulation of Tfh-signature genes LIF, LTA, PDCD1, TNF” value with human naïve CD4 T cells [3] (RNA-seq day 3, heat-map (FIG. 2K)) was “major factor regulating several Tfh-signature genes such as LIF, LTA, PDCD1, and TNF”. For the same substance, in the experiment with human naïve CD4 T cells [3], the “expression of bona fide GC Tfh signature genes (GSEA)” value was “imprinted with bona fide GC Tfh signature genes” and the “genes differentially upregulated, activin A+IL-12 versus TGFβ+IL-12” value turned out to be 35 genes. Also, in the experiment with human naïve CD4 T cells [3] (listed as Activin A), the “expression of bona fide GC Tfh signature genes (GSEA)” value is reported as “contributed more than IL-12 to driving expression of bona fide GC Tfh associated genes”. Further, in the experiment with human naïve CD4 T cells [3] (activin A+IL-12, RNA-seq day 3), the “genes selectively upregulated versus beads only” value is 116 genes and the “genes suppressed versus beads only” value was 60 genes. For the same substance, the Bcl6 protein expression entry in the experiment on human naïve CD4 T cells [4] (activin A with or without IL-12, FACS intranuclear staining (FIG. 8C)) is reported as “significant expression of Bcl6, particularly when combined with IL-12”. Also, the BCL6 expression result in the experiment on human naïve CD4 T cells [4] (activin A+IL-12, day 5 (FIG. 2F)) is “a fraction of CD4 T cells differentiated with activin A+IL-12 increased expression of BCL6”. Moreover, the “induction of Bcl6+CXCR5+ cells” value with human naïve CD4 T cells [4] is on record as “No detectable induction of Bcl6”.
